# Source: BindingDB's records for patent US10961236 (Astrazeneca, 2021)
# Target: T1, Phosphatidylinositol 4,5-bisphosphate 3-kinase catalytic subunit gamma isoform [144-1102] (Homo sapiens, UniProt P48736)
# T1 construct: 144-1102
# Assay: Enzymatic Activity Assay
# Protocol: Routinely, inhibitors were pre-incubated with 3 μl of enzyme for 15 min prior to the addition of 2 μl substrate mixture for a further 60 min enzyme reaction. The phosphorylation was stopped with the addition of 3 μl ADP-Glo reagent (stop solution) followed by a 40 min incubation. Prior to detection 6 μl of ADP-Glo Kinase Detection Reagent was added and the plates were read in a micro plate reader using a Luminescence filter. All additions were followed by a short centrifugation step.
# T1 sequence (P48736 144-1102): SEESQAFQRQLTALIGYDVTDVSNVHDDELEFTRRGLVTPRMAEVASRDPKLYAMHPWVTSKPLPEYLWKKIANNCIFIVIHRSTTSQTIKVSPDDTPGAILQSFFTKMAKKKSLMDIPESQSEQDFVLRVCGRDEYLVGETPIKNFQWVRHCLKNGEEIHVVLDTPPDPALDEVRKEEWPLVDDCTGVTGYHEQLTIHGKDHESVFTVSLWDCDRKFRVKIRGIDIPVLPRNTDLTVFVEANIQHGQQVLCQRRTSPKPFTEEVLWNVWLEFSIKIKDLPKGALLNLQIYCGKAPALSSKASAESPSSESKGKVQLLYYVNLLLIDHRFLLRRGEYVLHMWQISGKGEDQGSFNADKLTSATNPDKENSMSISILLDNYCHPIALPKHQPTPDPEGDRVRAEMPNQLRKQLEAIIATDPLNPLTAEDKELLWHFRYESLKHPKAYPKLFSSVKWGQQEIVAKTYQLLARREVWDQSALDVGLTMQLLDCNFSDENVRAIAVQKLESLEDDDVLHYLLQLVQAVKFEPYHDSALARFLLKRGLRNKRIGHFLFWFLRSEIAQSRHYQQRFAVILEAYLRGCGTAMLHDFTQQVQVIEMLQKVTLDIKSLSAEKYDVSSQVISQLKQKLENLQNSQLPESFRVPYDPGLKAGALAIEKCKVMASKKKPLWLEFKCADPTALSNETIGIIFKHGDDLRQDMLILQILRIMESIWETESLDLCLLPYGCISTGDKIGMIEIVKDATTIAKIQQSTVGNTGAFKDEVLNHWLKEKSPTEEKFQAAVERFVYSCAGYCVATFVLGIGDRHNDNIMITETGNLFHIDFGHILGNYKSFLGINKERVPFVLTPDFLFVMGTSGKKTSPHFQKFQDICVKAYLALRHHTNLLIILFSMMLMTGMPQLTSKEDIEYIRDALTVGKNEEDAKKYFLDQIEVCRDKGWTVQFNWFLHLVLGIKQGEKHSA
smiles,measurement,value
"CC[C@H](C)N1Cc2cc(-c3sc(Nc4cccc(N5CCCOC5=O)n4)nc3C)cc(S(=O)(=O)NC)c2C1=O [US10961236, Example 61]",IC50,1 nM
